Measured values as given in patent publication US20220008537A1, “COMPOUNDS FOR PHOTODYNAMIC THERAPY AND RELATED USES” (GEORGIA STATE UNIVERSITY RESEARCH FOUNDATION, INC., priority 2018, published 2022).

Assays:
pUC19 plasmid DNA = assay: DNA photocleavage inhibition induced by chemical additives; assay type: biochemical; settings: 20 μM dye, 38 μM bp pUC19, 830 nm 300 mW LED laser, pH 7.0
Description: Individual DNA cleavage reactions containing 5 μM to 50 μM concentrations of cyanine dye, 38 μM bp of pUC19 plasmid, and 10 mM of sodium phosphate pH 7.0 were prepared in a total volume of 40 μL. In order maintain reaction temperature at 10° C., 22° C., or 37° C., the samples were placed in a thermometer-fitted metal block that was either heated, kept at room temperature, or immersed in an ice bath. While monitoring temperature with the thermometer, the samples were either kept in the dark or were irradiated at time interval ranging from 5 min to 120 min using a light emitting diode (LED) laser (LaserLands) with a peak emission wavelength of either 532 nm (100 mW), 808 nm (300 mW), or 830 nm (300 mW). At the end of the irradiation time interval, a total of 3 μL of electrophoresis loading buffer containing 15.0% (w/v) ficoll and 0.025% (w/v) bromophenol blue) was added to each reaction and 20 μL of the resulting solution was added to one of the wells of 1.5% agarose gel stained with ethidium bromide (0.5 μg/mL, final concentration). Completely loaded gels were then electrophoresed for 60 min at 105 V in a Bio-Rad Laboratories gel box using 1×tris-acetate-EDTA (TAE) containing 0.5 μg/mL ethidium bromide as the running buffer. Electrophoresed gels were visualized at 302 nm with a VWR Scientific LM-20E transilluminator and then photographed with a UVP PhotoDoc-ItTM Imaging System. For quantitating the gels, ImageQuant version 5.2 software was employed. The DNA photocleavage yields were then calculated using the formula: Percent Photocleavage=[(Linear+Nicked DNA)/(Linear+Nicked+Supercoiled DNA)]×100. In an argon-purged glove box, 40 μL photocleavage reactions containing 10 mM sodium phosphate buffer pH 7.0, 20 μM of cyanine dye, and 38 μM bp of pUC19 plasmid were prepared from solutions bubbled with argon and then irradiated at 830 nm for 30 min The procedure was repeated using aerated solutions in a glove box purged with air. A second set of reactions containing 10 mM of sodium phosphate buffer pH 7.0, 38 μM bp pUC19 plasmid DNA and 20 μM of dye were prepared in the presence and absence of either 100 mM of the singlet oxygen scavenger sodium azide, 100 mM of the hydroxyl radical scavenger sodium benzoate, or 84% D2O (v/v). […] After the irradiation, the above DNA reactions were electrophoresed on 1.5% non-denaturing agarose gels, visualized, and quantitated as just described. The percent change in DNA photocleavage was then calculated using the formula, where additive stands for either argon, sodium azide, sodium benzoate, or D2O: Percent Change in Cleavage=[(% Total of Linear and Nicked […] additive-% Total of Linear and Nicked DNAwithout additive)/(% Total of Linear and Nicked DNAwithout additive)]×100. […]

| SMILES | melting point | Photocleavage inhibition (%) (pUC19 plasmid DNA; Reagent Argon (targets 1O2 & •OH)) | Photocleavage inhibition (%) (pUC19 plasmid DNA; Reagent D2O 84% (v/v) (target 1O2)) | Photocleavage inhibition (%) (pUC19 plasmid DNA; Reagent Sodium azide 100 mM (targets 1O2 > •OH)) | Photocleavage inhibition (%) (pUC19 plasmid DNA; Reagent Sodium benzoate 100 mM (target •OH)) |
| --- | --- | --- | --- | --- | --- |
| CN1C=C/C(=C/C=C/C=C/c2cc[n+](C)c3ccccc23)c2ccccc21.[I-] [Dye 4, 1-methyl-4-((1E,3E)-5-((Z)-1-methylquinolin-4(1H)-ylidene)penta-1,3-dien-1-yl)quinolin-1-ium iodide] | 239 °C (dec.) | – | – | – | – |
| CN1C=C/C(=C/C=C(Cl)/C=C/c2cc[n+](C)c3ccccc23)c2ccccc21.[I-] [Dye 5, 4-((1E,3Z)-3-chloro-5-((Z)-1-methylquinolin-4(1H)-ylidene)penta-1,3-dien-1-yl)-1-methylquinolin-1-ium iodide] | > 260 °C | 67 ± 3 | 6 ± 1 | 26 ± 3 | 31 ± 2 |
